Experimental data: PMC10726352, “Discovery of KB-0742, a Potent, Selective, Orally Bioavailable Small Molecule Inhibitor of CDK9 for MYC-Dependent Cancers” (Journal of Medicinal Chemistry, 2023)
pEC50, pIC50: −log10 of the molar value. Where “and” joins values, the source holds several entries; their conditions need not be identical. Equal values may be shown once.

Experiments:
in vitro [1] = details: rat, hepatocytes
Pharmacokinetics [2] = type: in vivo; details: mouse
[3] = Projection of human PK parameters
Pharmacokinetics [4] = type: in vivo; details: rat
in vitro [5] = details: dog, hepatocytes
in vitro [6] = details: mouse, hepatocytes
Microsome stability [7] = details: mouse
Plasma protein binding [8] = details: mouse
Pharmacokinetics [9] = type: in vivo; details: dog
Microsome stability [10] = details: dog
Plasma protein binding [11] = details: dog
[12] = Plasma concentration in CTG-1017 tumor-bearing mice; type: in vivo; details: Athymic Nude-Foxn1nu, mouse, po, 60 mg/kg p.o.
Microsome stability [13] = details: human
Plasma protein binding [14] = details: rat
Plasma protein binding [15] = details: human
LogD = type: physicochemical; details: pH = 7.4
Microsome stability [16] = details: rat
in vitro [17] = details: mouse, rat, dog, human, microsomes and hepatocytes
in vitro [18] = details: human, hepatocytes
MDA-MB-231 = experiment: OncoPanel Multiplexed Cytotoxicity Assay; type: cell-based
BT-20 = experiment: OncoPanel Multiplexed Cytotoxicity Assay; type: cell-based
MT-3 = experiment: OncoPanel Multiplexed Cytotoxicity Assay; type: cell-based
BT-549 = experiment: OncoPanel Multiplexed Cytotoxicity Assay; type: cell-based
Hs 578T = experiment: OncoPanel Multiplexed Cytotoxicity Assay; type: cell-based

## CCC(CC)c1cc(N[C@H]2CC[C@H](N)C2)n2nccc2n1 [Compound 28, [(1S,3S)-3-[[5-(1-Ethylpropyl)pyrazolo[1,5-a]pyrimidin-4-ium-7-yl]amino]cyclopentyl]ammonium Dichloride]
In vitro [1]
  CLint scaled: 62 mL/min/kg
  half-life: 1.97 h
Pharmacokinetics [2]; i.v. 1.0 mg/kg
  Vd,ss (i.v.): 3.9 L/kg
Pharmacokinetics [2]; p.o. 20 mg/kg
  AUC (p.o.): 1700 ng·h/mL
  Cmax (p.o.): 501 ng/mL
[3]; 70 kg body weight, IVIVE and allometry
  mean predicted human Vd,ss: 6.0 L/kg
[3]; derived from nonclinical species
  predicted human oral bioavailability: 75%
[3]; human, plasma, one-compartment, read-out: estimated human terminal half-life (converted)
  half-life: ~35 h
Pharmacokinetics [4]; i.v. 2.0 mg/kg
  T1/2 (i.v.): 2.4 h
Pharmacokinetics [4]; p.o. 10 mg/kg
  AUC (p.o.): 3591 ng·h/mL
  Cmax (p.o.): 411 ng/mL
In vitro [5]
  CLint scaled: 38 mL/min/kg
  half-life: 3.25 h
In vitro [6]
  CLint scaled: 44 mL/min/kg
Microsome stability [7]
  Microsome stability: 87.4 % remaining 180 min
Plasma protein binding [8]
  PPB: 48 % bound
Pharmacokinetics [9]; i.v. 0.50 mg/kg
  T1/2 (i.v.): 4.7 h
  Vd,ss (i.v.): 4.5 L/kg
Pharmacokinetics [9]; p.o. […]
  F: >100%
Pharmacokinetics [9]; plasma, iv, 0.5 mg/kg, i.v. 0.50 mg/kg
  CLint scaled: 13.4 mL/min/kg
Microsome stability [10]
  Microsome stability: 68.8 % remaining 180 min
Plasma protein binding [11]
  PPB: 72 % bound
[12]; 2 h post-dose
  concentration at 2 h: 846 ng/mL and 2.9 µM
[12]; 8 h post-dose
  concentration at 8 h: 73 ng/mL and 250 nM
Microsome stability [13]
  Microsome stability: 92.5 % remaining 180 min
Plasma protein binding [14]
  PPB: 41 % bound
Plasma protein binding [15]
  PPB: 38 % bound
LogD
  logD: 0.9
Microsome stability [16]
  Microsome stability: 81.3 % remaining 180 min
In vitro [17]
  half-life: ≥ 2 h
In vitro [18]
  CLint scaled: 1.6 mL/min/kg
  half-life: 39 h

## CN[C@@H]1C[C@H]2O[C@@](C)([C@@H]1OC)n1c3ccccc3c3c4c(c5c6ccccc6n2c5c31)C(=O)NC4 [Staurosporine]
MDA-MB-231
  Apoptosis Emax: 5.32
  Cell Count Activity Area: 5.26
MDA-MB-231; Homo sapiens, MDA-MB-231, 72 h, read-out: Cell count IC50
  pIC50: 8.77
MDA-MB-231; MDA-MB-231, 72 h
  G1/S cell cycle block: 0.0122 µM
BT-20
  Apoptosis Emax: 4.6
  Cell Count Activity Area: 2.58
BT-20; BT-20, 72 h
  G1/S cell cycle block: 0.00581 µM
BT-20; Homo sapiens, BT-20, 72 h, read-out: Cell Count EC50
  pEC50: 7.50
BT-20; Homo sapiens, BT-20, 72 h, read-out: Cell count GI50
  GI50: 23.6 nM
MT-3
  Apoptosis Emax: 10.32
MT-3; MT-3, 72 h
  G1/S cell cycle block: 0.0273 µM
MT-3; MT-3, 72 h, read-out: Cell count GI50
  GI50: 9.39 nM
BT-549
  Apoptosis Emax: 6.9
  Cell Count Activity Area: 4.39
BT-549; BT-549, 72 h
  G1/S cell cycle block: 0.00531 µM
BT-549; Homo sapiens, BT-549, 72 h, read-out: Cell count GI50
  GI50: 5.56 nM
Hs 578T
  Apoptosis Emax: 6.48
  Cell Count Activity Area: 4.99
Hs 578T; Homo sapiens, Hs-578T, 72 h, read-out: Cell count GI50
  GI50: 1.45 nM
Hs 578T; Hs 578T, 72 h
  G1/S cell cycle block: 0.000753 µM
